Assay results published in ChEMBL document CHEMBL5236576, “Discovery of a potent M5 antagonist with improved clearance profile. Part 2: Pyrrolidine amide-based antagonists” (Bioorg Med Chem Lett, 2022).
The source made the active and inactive calls. No cut-off for these calls is given here.

Experiments:
[1] = Intrinsic clearance in human; format: ADME
[2] = target: T1, Muscarinic acetylcholine receptor M5 (Homo sapiens) (UniProt P08912); test: Antagonist activity at human muscarinic M5 receptor expressed in CHO cells assessed as minimal acetylcholine response by calcium mobilisation assay relative to control; format: cell-based; design: concentration or dose not given beside the values
T1 sequence (whole entry): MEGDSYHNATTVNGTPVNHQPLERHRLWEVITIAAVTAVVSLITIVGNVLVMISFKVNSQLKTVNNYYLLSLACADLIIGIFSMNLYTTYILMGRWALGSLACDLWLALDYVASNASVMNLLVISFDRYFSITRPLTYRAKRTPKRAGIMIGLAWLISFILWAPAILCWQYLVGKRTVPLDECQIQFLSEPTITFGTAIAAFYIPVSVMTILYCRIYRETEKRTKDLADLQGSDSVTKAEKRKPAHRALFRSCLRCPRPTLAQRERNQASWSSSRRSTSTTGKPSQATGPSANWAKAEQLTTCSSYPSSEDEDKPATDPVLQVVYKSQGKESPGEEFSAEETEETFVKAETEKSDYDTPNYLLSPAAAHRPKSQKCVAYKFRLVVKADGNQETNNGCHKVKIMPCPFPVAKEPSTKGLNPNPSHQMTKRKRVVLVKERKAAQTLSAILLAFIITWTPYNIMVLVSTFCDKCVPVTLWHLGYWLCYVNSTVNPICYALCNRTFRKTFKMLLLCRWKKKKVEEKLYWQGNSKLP

[3] = target: T2, Muscarinic acetylcholine receptor M5 (Homo sapiens, UniProt P08912); test: (§1) Antagonist activity at human muscarinic M5 receptor expressed in CHO cells in the presence of acetylcholine by calcium mobilisation assay; format: cell-based
T2 sequence (P08912 whole entry): T1 sequence (whole entry)

[4] = Intrinsic clearance in rat; format: ADME
[5] = Lipophilicity, logD of the compound at pH 7.4; format: physicochemical; details: buffer
[6] = target: T3, Muscarinic acetylcholine receptor M5 (Rattus norvegicus) (UniProt P08911); test: Antagonist activity at rat muscarinic M5 receptor expressed in CHO cells assessed as minimal acetylcholine response by calcium mobilisation assay relative to control; format: cell-based; design: scale not given: the % may be the effect or the level left; details: filed as antagonist
T3 sequence (whole entry): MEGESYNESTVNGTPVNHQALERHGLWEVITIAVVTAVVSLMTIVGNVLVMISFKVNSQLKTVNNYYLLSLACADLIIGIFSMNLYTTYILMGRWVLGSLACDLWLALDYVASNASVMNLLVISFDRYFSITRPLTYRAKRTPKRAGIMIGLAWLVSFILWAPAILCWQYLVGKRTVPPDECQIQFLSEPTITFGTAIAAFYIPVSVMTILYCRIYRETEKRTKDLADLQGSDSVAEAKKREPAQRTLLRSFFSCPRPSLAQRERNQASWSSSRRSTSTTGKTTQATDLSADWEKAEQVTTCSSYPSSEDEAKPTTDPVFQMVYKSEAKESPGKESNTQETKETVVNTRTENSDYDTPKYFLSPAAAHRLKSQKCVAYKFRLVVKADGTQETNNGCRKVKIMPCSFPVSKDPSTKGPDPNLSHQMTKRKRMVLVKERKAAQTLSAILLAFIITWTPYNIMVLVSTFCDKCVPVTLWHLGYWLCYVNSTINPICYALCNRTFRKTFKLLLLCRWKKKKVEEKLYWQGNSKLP

[7] = target: T4, Muscarinic acetylcholine receptor M5 (Rattus norvegicus, UniProt P08911); test: Antagonist activity at rat muscarinic M5 receptor expressed in CHO cells in the presence of acetylcholine by calcium mobilisation assay; format: cell-based
T4 sequence (P08911 whole entry): T3 sequence (whole entry)

[8] = Unbound fraction in rat brain; format: ADME, tissue-based
[9] = Unbound fraction in rat plasma; format: ADME, cell-free
[10] = Unbound fraction in human plasma; format: ADME, cell-free
[11] = target: T1, Muscarinic acetylcholine receptor M5 (Homo sapiens); test: as §1; format: cell-based
[12] = target: T1, Muscarinic acetylcholine receptor M5 (Homo sapiens); test: Potency index, ratio of VU6027831 IC50 to test compound IC50 for antagonist activity at human M5 muscarinic receptor
[13] = Apparent permeability in MDCK-MDR1 cells; format: ADME, cell-based, Canis lupus familiaris; details: dog
[14] = target: T5, Muscarinic acetylcholine receptor M1 (Homo sapiens) (UniProt P11229); test: Antagonist activity at human muscarinic M1 receptor expressed in CHO cells assessed as minimal acetylcholine response by calcium mobilisation assay relative to control; format: cell-based; design: scale not given: the % may be the effect or the level left; details: filed as antagonist
T5 sequence (whole entry): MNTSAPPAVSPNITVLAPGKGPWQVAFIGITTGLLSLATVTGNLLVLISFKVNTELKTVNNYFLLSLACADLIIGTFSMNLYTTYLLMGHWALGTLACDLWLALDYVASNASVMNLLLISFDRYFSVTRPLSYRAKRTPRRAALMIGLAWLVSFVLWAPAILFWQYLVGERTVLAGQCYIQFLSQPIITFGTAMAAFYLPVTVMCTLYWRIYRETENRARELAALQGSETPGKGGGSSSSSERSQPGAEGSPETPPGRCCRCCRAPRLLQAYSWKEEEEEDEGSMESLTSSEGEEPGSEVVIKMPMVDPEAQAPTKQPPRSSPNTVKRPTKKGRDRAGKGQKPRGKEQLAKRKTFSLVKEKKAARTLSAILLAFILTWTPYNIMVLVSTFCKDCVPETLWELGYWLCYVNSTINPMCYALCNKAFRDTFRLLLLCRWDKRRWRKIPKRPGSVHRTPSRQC

P-glycoprotein = test: Efflux ratio of permeability in MDCK-MDR1 cells expressing P-glycoprotein; format: ADME, cell-based, Canis lupus familiaris; details: dog
[15] = target: T6, Muscarinic acetylcholine receptor M1 (Homo sapiens, UniProt P11229); test: Antagonist activity at human muscarinic M1 receptor expressed in CHO cells in the presence of acetylcholine by calcium mobilisation assay; format: cell-based
T6 sequence (P11229 whole entry): T5 sequence (whole entry)

[16] = target: T7, Muscarinic acetylcholine receptor M4 (Homo sapiens, UniProt P08173); test: Antagonist activity at human muscarinic M4 receptor expressed in CHO cells in the presence of acetylcholine by calcium mobilisation assay; format: cell-based
T7 sequence (P08173 whole entry): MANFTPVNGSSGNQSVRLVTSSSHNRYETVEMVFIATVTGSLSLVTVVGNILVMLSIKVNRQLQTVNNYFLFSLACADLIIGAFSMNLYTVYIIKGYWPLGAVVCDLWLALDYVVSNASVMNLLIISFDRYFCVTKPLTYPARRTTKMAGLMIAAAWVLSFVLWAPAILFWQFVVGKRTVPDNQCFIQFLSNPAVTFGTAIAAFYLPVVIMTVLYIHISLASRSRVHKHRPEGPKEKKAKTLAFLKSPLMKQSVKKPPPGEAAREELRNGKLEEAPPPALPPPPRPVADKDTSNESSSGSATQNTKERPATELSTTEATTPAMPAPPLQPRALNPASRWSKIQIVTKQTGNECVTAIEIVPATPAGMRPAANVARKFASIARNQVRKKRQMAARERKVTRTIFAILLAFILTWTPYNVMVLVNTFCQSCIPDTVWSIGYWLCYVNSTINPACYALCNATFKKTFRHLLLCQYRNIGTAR

[17] = target: T3, Muscarinic acetylcholine receptor M5 (Rattus norvegicus); test: Antagonist activity at rat muscarinic M5 receptor assessed as minimal acetylcholine response relative to control; design: scale not given: the % may be the effect or the level left; details: filed as antagonist

Structure (SMILES)	CLint scaled [1]	Activity ([2]; filed as antagonist)	IC50 [3]	CLint scaled [4]	logD [5]	other results
O=C(Nc1ccc2scnc2c1)C12CC1CN(S(=O)(=O)c1ccc3c(c1)CCO3)C2 (racemic)	115 mL/min/kg	2%	270 nM	396 mL/min/kg	2.88	
O=C(Nc1ccc2scnc2c1)C1CN(S(=O)(=O)c2ccc3c(c2)CCO3)C1	61 mL/min/kg	2%		301 mL/min/kg		
O=C(Nc1ccc2scnc2c1)[C@@H]1CCN(S(=O)(=O)c2ccc3ncsc3c2)C1	33 mL/min/kg	2%		51 mL/min/kg	2.04	Activity [6]: 4%; IC50 [7]: 550 nM; fraction unbound [8]: 0.08; Fu [9]: 0.01; Fu [10]: 0.12
O=C(Nc1ccc2scnc2c1)[C@@H]1CCN(S(=O)(=O)c2cccnc2)C1					1.65	Activity [11]: inactive
O=C(Nc1ccc2scnc2c1)[C@H]1CCN(S(=O)(=O)c2ccc3c(c2)CCO3)C1	64 mL/min/kg	3%	440 nM	201 mL/min/kg	2.51	
Cc1ccc(S(=O)(=O)N2CC[C@@H](C(=O)Nc3ccc4scnc4c3)C2)cn1		41%	> 10000 nM		1.85	
O=C(Nc1ccc2scnc2c1)C1CCN(S(=O)(=O)c2ccc3c(c2)CCO3)C1 (stereo unspecified)	72 mL/min/kg	2%	47 nM	252 mL/min/kg		Ratio IC50 [12]: 2
O=C(Nc1ccc2scnc2c1)[C@H]1CN(S(=O)(=O)c2ccc3c(c2)CCO3)C[C@@H]1C(F)(F)F					3.65	Activity [11]: inactive
Cn1cc(S(=O)(=O)N2CC[C@@H](C(=O)Nc3ccc4scnc4c3)C2)c(C(F)(F)F)n1			> 10000 nM		2.62	Activity [2]: 59%
O=C(Nc1ccc2scnc2c1)[C@@H]1CCN(S(=O)(=O)c2ccc3c(c2)CCC3)C1		31%			3.54	
C[C@@H]1CN(S(=O)(=O)c2ccc3c(c2)CCO3)C[C@@H]1C(=O)Nc1ccc2scnc2c1	202 mL/min/kg	3%	35 nM	769 mL/min/kg	2.88	
Cc1nn(C)cc1S(=O)(=O)N1CC[C@@H](C(=O)Nc2ccc3scnc3c2)C1		6%			1.62	
[2H]C1([2H])Oc2ccc(S(=O)(=O)N3CC[C@@H](C(=O)Nc4ccc5scnc5c4)C3)cc2C1([2H])[2H]	50 mL/min/kg			168 mL/min/kg	2.45	
C[C@H]1CN(S(=O)(=O)c2ccc3c(c2)CCO3)C[C@@H]1C(=O)Nc1ccc2scnc2c1	5 mL/min/kg	2%	87 nM	51 mL/min/kg	2.94	Activity [6]: 2%; IC50 [7]: 190 nM; fraction unbound [8]: 0.05; Papp [13]: 1.75 10^-6 cm/s; Fu [9]: 0.01; Activity [14]: 8%; Fu [10]: 0.03; efflux ratio (P-glycoprotein): 32.3; IC50 [15]: > 10000 nM; IC50 [16]: > 10000 nM
O=C(Nc1ccc2scnc2c1)[C@@H]1CCN(S(=O)(=O)c2ccc3ncccc3c2)C1	42 mL/min/kg	3%		191 mL/min/kg	1.99	
O=C(Nc1ccc2scnc2c1)[C@@H]1CCN(S(=O)(=O)c2ccc3c(c2)OCO3)C1	30 mL/min/kg	3%		267 mL/min/kg	2.43	
O=C(Nc1ccc2scnc2c1)C1CCN(S(=O)(=O)c2ccc3c(c2)CCO3)CC1						Activity [17]: 3%
O=C(Nc1ccc2scnc2c1)[C@@H]1CCN(S(=O)(=O)c2ccc3c(c2)CCO3)C1	50.6 mL/min/kg	2%	21 nM	356 mL/min/kg	2.53	Activity ([2]; filed as antagonist, tested as the 2H-labelled form): 2%
O=C(Nc1ccc2scnc2c1)[C@@H]1CCN(S(=O)(=O)c2ccc(Cl)nc2)C1					2.41	Activity [11]: inactive
